ChEMBL document CHEMBL4354882, “Selective Janus Kinase 2 (JAK2) Pseudokinase Ligands with a Diaminotriazole Core” (J Med Chem, 2020)

Assays:
[1] = biological target: T1, Tyrosine-protein kinase JAK2 (Homo sapiens, UniProt O60674); parameters: species or system Sf9
[2] = biological target: T1, Tyrosine-protein kinase JAK2; assay: Binding affinity to human C-terminal His8-tagged JAK2 pseudokinase (513 to 827 residues) expressed in baculovirus infected Hi-5 cells by intrinsic tryptophan fluorescence assay
[3] = biological target: Tyrosine-protein kinase JAK2 (Homo sapiens, UniProt O60674, V617F); assay: Binding affinity to 6XHis-tagged human JAK2 JH2 domain V617F mutant (513 to 827 residues) expressed in baculovirus infected Sf9 cells by MANT-ATP binding assay
Chain of Tyrosine-protein kinase JAK2 (Homo sapiens, UniProt O60674, V617F) (O60674 whole entry V617F, the tested form may be a part): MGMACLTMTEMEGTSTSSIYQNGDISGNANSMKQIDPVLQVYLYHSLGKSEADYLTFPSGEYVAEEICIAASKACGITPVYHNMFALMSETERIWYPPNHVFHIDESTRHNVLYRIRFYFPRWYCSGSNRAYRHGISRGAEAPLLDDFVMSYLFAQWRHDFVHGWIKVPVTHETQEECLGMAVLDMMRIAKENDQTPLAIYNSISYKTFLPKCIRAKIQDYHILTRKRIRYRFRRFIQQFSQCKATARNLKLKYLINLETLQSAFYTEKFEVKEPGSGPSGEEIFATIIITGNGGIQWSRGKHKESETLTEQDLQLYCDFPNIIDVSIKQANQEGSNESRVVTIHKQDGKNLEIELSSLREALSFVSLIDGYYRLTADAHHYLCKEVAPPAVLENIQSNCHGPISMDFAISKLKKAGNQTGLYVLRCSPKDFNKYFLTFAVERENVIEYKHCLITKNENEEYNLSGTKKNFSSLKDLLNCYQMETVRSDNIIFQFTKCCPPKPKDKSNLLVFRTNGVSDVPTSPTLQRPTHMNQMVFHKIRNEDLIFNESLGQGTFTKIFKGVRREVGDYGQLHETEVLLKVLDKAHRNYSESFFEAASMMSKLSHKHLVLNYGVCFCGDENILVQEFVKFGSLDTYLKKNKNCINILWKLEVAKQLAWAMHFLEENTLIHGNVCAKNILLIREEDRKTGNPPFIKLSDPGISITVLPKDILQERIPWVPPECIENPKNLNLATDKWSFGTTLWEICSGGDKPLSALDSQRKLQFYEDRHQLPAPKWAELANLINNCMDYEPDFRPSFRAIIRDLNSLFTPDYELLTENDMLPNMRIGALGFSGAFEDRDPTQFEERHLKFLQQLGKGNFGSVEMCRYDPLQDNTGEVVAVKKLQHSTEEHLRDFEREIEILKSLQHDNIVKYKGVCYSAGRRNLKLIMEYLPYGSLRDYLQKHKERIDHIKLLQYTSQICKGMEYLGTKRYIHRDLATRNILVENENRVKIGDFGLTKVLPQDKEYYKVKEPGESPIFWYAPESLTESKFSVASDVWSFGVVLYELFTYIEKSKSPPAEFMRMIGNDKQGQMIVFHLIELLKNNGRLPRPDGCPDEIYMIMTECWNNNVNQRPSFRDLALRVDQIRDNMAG

[4] = biological target: T1, Tyrosine-protein kinase JAK2; assay: Binding affinity to wild type 6XHis-tagged human JAK2 JH2 domain (513 to 827 residues) expressed in baculovirus infected Sf9 cells by MANT-ATP binding assay

T1 sequence (O60674 whole entry, the tested form may be a part): as the sequence (O60674 whole entry V617F, the tested form may be a part) above, with F617V counted along it

Row | SMILES | Kd [1] [µM] | also measured
1 | Nc1nc(Nc2ccc(S(N)(=O)=O)cc2)nn1C(=O)Nc1ccccn1 | 30.5 | –
2 | Nc1nc(Nc2ccc(S(N)(=O)=O)cc2)nn1Cc1c(F)cccc1F | 16.7 | –
3 | Nc1ncnc2c1ncn2[C@@H]1O[C@H](COP(=O)(O)OP(=O)(O)OP(=O)(O)O)[C@@H](O)[C@H]1O [ADENOSINE TRIPHOSPHATE] | – | Kd [3]: 1.3 µM; Kd [4]: 1.3 µM
4 | CN(C(=O)n1nc(Nc2ccc(S(N)(=O)=O)cc2)nc1N)c1ccccc1 | 47.8 | –
5 | Nc1nc(Nc2ccc(S(N)(=O)=O)cc2)nn1C(=O)Nc1cccnc1 | 12.3 | –

The next lines start with results.

Row | Kd [1] [µM] | SMILES | also measured
6 | 0.439 | Nc1nc(Nc2ccc(S(N)(=O)=O)cc2)nn1C(=O)Nc1ccc(-c2ccc(C(=O)O)o2)cc1 | –
7 | 2 | CC(C)CCN1c2nc(Nc3cc(F)c(O)c(F)c3)ncc2N(C)C(=O)C1C (stereo not drawn) | Kd [2]: 0.62 µM
8 | 4.7 | Nc1nc(Nc2ccc(S(N)(=O)=O)cc2)nn1C(=O)Nc1ccccc1 | –
9 | 4 | N#Cc1ccc(Nc2nc(N)n(C(=O)Nc3cccc(OCC(=O)O)c3)n2)cc1 | –
10 | 1.9 | COC(=O)COc1ccc(NC(=O)n2nc(Nc3ccc(S(N)(=O)=O)cc3)nc2N)cc1 | –
11 | 7 | Nc1nc(Nc2ccc(S(N)(=O)=O)cc2)nn1C(=O)Nc1ccc(-c2nnc(C(=O)O)o2)cc1 | –
